Holding throughout (type): functional
Settings in all cases: read-out: GI

One assay concerns SK-OV-3. The assay can be described thus: Growth inhibition of human SK-OV-3 cells at 10 uM incubated for 48 hrs by sulforhodamine B assay relative to control.
The next assay has as its system EKVX. The assay can be described thus: Growth inhibition of human EKVX cells at 10 uM incubated for 48 hrs by sulforhodamine B assay relative to control.
The subject of another assay is SW-620. The assay is described as follows: Growth inhibition of human SW-620 cells at 10 uM incubated for 48 hrs by sulforhodamine B assay relative to control.
The subject of another assay is NCI-H460. The assay is described as follows: Growth inhibition of human NCI-H460 cells at 10 uM incubated for 48 hrs by sulforhodamine B assay relative to control.
In a further assay the test system is ACHN. The assay is described as follows: Growth inhibition of human ACHN cells at 10 uM incubated for 48 hrs by sulforhodamine B assay relative to control.
Another assay has as its system HOP-62. The assay can be described thus: Growth inhibition of human HOP-62 cells at 10 uM incubated for 48 hrs by sulforhodamine B assay relative to control.
A further assay relates to T47D. The assay is described as follows: Growth inhibition of human T47D cells at 10 uM incubated for 48 hrs by sulforhodamine B assay relative to control.
Another assay deals with CAKI-1. The assay can be described thus: Growth inhibition of human CAKI-1 cells at 10 uM incubated for 48 hrs by sulforhodamine B assay relative to control.
The next assay has as its system SR. The assay is described as follows: Growth inhibition of human SR cells at 10 uM incubated for 48 hrs by sulforhodamine B assay relative to control.
In another assay the test system is A549. The assay can be described thus: Growth inhibition of human A549/ATCC cells at 10 uM incubated for 48 hrs by sulforhodamine B assay relative to control.
For another assay, the system named is 786-0. The assay can be described thus: Growth inhibition of human 786-0 cells at 10 uM incubated for 48 hrs by sulforhodamine B assay relative to control.
The next assay concerns U-251. The assay can be described thus: Growth inhibition of human U-251 cells at 10 uM incubated for 48 hrs by sulforhodamine B assay relative to control.
Another assay relates to A498. The assay can be described thus: Growth inhibition of human A498 cells at 10 uM incubated for 48 hrs by sulforhodamine B assay relative to control.
For another assay, the system named is NCI-H322M. The assay is described as follows: Growth inhibition of human NCI-H322M cells at 10 uM incubated for 48 hrs by sulforhodamine B assay relative to control.
For a further assay, the system named is SK-MEL-2. The assay can be described thus: Growth inhibition of human SK-MEL-2 cells at 10 uM incubated for 48 hrs by sulforhodamine B assay relative to control.
The subject of a further assay is RPMI-8226. The assay is described as follows: Growth inhibition of human RPMI-8226 cells at 10 uM incubated for 48 hrs by sulforhodamine B assay relative to control.

With `O=C(Cn1nnc2ccccc21)Nc1ccc(-c2nc3ccccc3s2)cc1`, the inhibition of growth at 10 µM with SK-OV-3 is -4.22%; in the assay on EKVX, 21.8%; in the assay on SW-620 it was 5.47%; with NCI-H460, 17%; in the assay on ACHN, -9.93%; with HOP-62, -1.24%. Further, the inhibition of growth at 10 µM was found to be 33.1% in the assay with T47D; 14.5% in the assay with CAKI-1; 59.9% in the assay with SR; 6.45% in the assay with A549; 5.01% with 786-0; 10.4% with U-251. Also, the inhibition of growth at 10 µM in the assay with A498 was 14.9%; with NCI-H322M, -2.72%; in the assay with SK-MEL-2 it was -0.54%; with RPMI-8226 it was 14.7%.
`O=C(CNc1nnc(-c2ccc(Cl)cc2)o1)Nc1ccc(-c2nc3ccccc3s2)cc1`: the inhibition of growth at 10 µM in the assay with SK-OV-3 is -16.6%; in the assay on EKVX it was -4.4%; in the assay with SW-620, -9.76%; with NCI-H460 it was 0.31%; in the assay on ACHN, -12%; with HOP-62 it was -6.78%. The inhibition of growth at 10 µM in the assay with T47D is 20.1%; in the assay with CAKI-1, -0.31%; in the assay with SR it was 28.2%; in the assay with A549 it was 4.18%; in the assay on 786-0, -1.02%; with U-251, 18.4%. The inhibition of growth at 10 µM in the assay on A498 is 18%; in the assay with NCI-H322M, 4.86%; in the assay with RPMI-8226, 4.61%.
Regarding `Cc1cc(C)n(CC(=O)Nc2ccc(-c3nc4ccccc4s3)cc2)n1`, the inhibition of growth at 10 µM with SK-OV-3 is -14%; in the assay on EKVX, -7.86%; in the assay with SW-620, -13.1%; in the assay with NCI-H460 it was -2.37%; in the assay on ACHN, -14.4%; with HOP-62 it was -5.06%. Also, the inhibition of growth at 10 µM with T47D is 6.7%; in the assay on CAKI-1 it was -1.54%; in the assay with SR, 0.6%; in the assay with A549 it was 5.29%; with 786-0, -5.8%; with U-251, 10.3%. Further, the figures for the inhibition of growth at 10 µM in the assay on A498, in the assay on NCI-H322M and with RPMI-8226 were 5.37%, 0.12% and 2.85%, respectively.
With `Cc1cc(NCC(=O)Nc2ccc(-c3nc4ccccc4s3)cc2)no1`, the inhibition of growth at 10 µM is -19.7% with SK-OV-3; -7.95% in the assay with EKVX; -13.2% with SW-620; -2.65% in the assay with NCI-H460; -10.7% in the assay with ACHN; -10.9% in the assay with HOP-62. For the same compound, the inhibition of growth at 10 µM in the assay with T47D is 19.7%; in the assay with CAKI-1, -3.5%; with SR, 30.1%; in the assay with A549, 7.66%; with 786-0 it was -1.59%; in the assay with U-251, 11.9%. Also, the inhibition of growth at 10 µM with A498 was 10.3%; with NCI-H322M, -1.5%; in the assay on RPMI-8226, 1.57%.
For `O=C(Cn1ccc2ccccc21)Nc1ccc(-c2nc3ccccc3s2)cc1`, the inhibition of growth at 10 µM in the assay with SK-OV-3 is -1.65%; with EKVX, -7.41%; with SW-620, -6.47%; in the assay with NCI-H460, -4.62%; with ACHN, -10.9%; in the assay with HOP-62 it was -3.42%. The inhibition of growth at 10 µM with T47D is 9.38%; with CAKI-1, -0.29%; with SR, 4.51%; in the assay on A549 it was 1.71%; in the assay with 786-0, -3.1%; in the assay with U-251, 2.41%. Further, the figures for the inhibition of growth at 10 µM in the assay with A498, in the assay on NCI-H322M and in the assay with RPMI-8226 were 0.94%, 1.19% and 0%, respectively.
With `O=C(Cn1cncn1)Nc1ccc(-c2nc3ccccc3s2)cc1`, the inhibition of growth at 10 µM is 0.14% in the assay with SK-OV-3; 9.8% with EKVX; -6.34% in the assay on SW-620; 2.97% in the assay on NCI-H460; -10.5% in the assay with ACHN; -2.28% in the assay with HOP-62. Further, the inhibition of growth at 10 µM was found to be 35.1% in the assay with T47D; 6.2% in the assay with CAKI-1; 16.2% in the assay with SR; 11.9% in the assay with A549; 4.38% with 786-0; 10% in the assay with U-251. For the same compound, the inhibition of growth at 10 µM with A498 is 11.6%; with NCI-H322M, -0.63%; in the assay with RPMI-8226, 16.8%.
As for `O=C(Cn1cnc2ccccc21)Nc1ccc(-c2nc3ccccc3s2)cc1`, the inhibition of growth at 10 µM in the assay on SK-OV-3 stood at 15.1%; with EKVX, 46.8%; in the assay with SW-620, 15.2%; in the assay on NCI-H460, 34.3%; with ACHN it was 15.5%; with HOP-62, 12.6%. The inhibition of growth at 10 µM with T47D came out at 52.8%; with CAKI-1 it was 38.1%; with SR, 60%; in the assay with A549, 39%; with 786-0, 20.5%; in the assay with U-251, 30.6%. Further, the inhibition of growth at 10 µM was found to be 33.2% in the assay with A498, 8.06% in the assay on NCI-H322M and 62.6% in the assay on RPMI-8226.
Turning to `O=C(CNc1nc(-c2ccc(Cl)cc2)cs1)Nc1ccc(-c2nc3ccccc3s2)cc1`, the inhibition of growth at 10 µM was 4.97% in the assay with SK-OV-3; -2.38% in the assay with EKVX; 0.12% in the assay with SW-620; 8.75% in the assay with NCI-H460; -5.08% in the assay with ACHN; -6.21% in the assay with HOP-62. The inhibition of growth at 10 µM was 43.9% in the assay on T47D; 5.79% with CAKI-1; 10.3% with SR; 0.99% in the assay on A549; -9.09% with 786-0; 8.44% in the assay on U-251. The figures for the inhibition of growth at 10 µM with A498, with NCI-H322M and with RPMI-8226 were -2.14%, 8.37% and 12.6%, respectively.
Regarding `O=C(Cn1ccnc1)Nc1ccc(-c2nc3ccccc3s2)cc1`, the inhibition of growth at 10 µM with SK-OV-3 is 12.2%; with EKVX, 38.6%; with SW-620, 0.17%; in the assay on NCI-H460 it was 20.2%; with ACHN, 9.7%; with HOP-62, 16.2%. In addition, the inhibition of growth at 10 µM in the assay on T47D is 48.6%; with CAKI-1 it was 33.8%; with SR, 63.5%; with A549, 29.7%; in the assay on 786-0 it was 22%; in the assay on U-251 it was 28.1%. Further, the inhibition of growth at 10 µM in the assay on A498 is 42.5%; in the assay on NCI-H322M it was 1.71%; with RPMI-8226, 48%.
Take `CN1CCN(CC(=O)Nc2ccc(-c3nc4ccccc4s3)cc2)CC1`: the inhibition of growth at 10 µM was 5.77% in the assay with SK-OV-3; 16.3% in the assay on EKVX; -2.26% in the assay with SW-620; 15.3% with NCI-H460; 28.8% with ACHN; 12.7% with HOP-62. Also, the inhibition of growth at 10 µM stood at 45.9% in the assay on T47D; 26.5% in the assay with CAKI-1; 93.7% with SR; 11.4% with A549; 21.3% in the assay with 786-0; 32.5% in the assay on U-251. Besides, the inhibition of growth at 10 µM was found to be 40.5% in the assay with A498, 22.1% with NCI-H322M and 11.9% in the assay with RPMI-8226.

These data come from ChEMBL document CHEMBL4765227, “Hit to lead optimization of a series of N-[4-(1,3-benzothiazol-2-yl)phenyl]acetamides as monoacylglycerol lipase inhibitors with potential anticancer activity” (Eur J Med Chem, 2016).
